# In patent US8188059B2, “Compounds and methods for modulating expression of GCGR” (Isis Pharmaceuticals, Inc., priority 2006, dated 2012):
# Strand notation (5' to 3'): a small letter for the sugar, then the base; units joined by * are phosphorothioate-linked, units joined directly phosphodiester-linked; [ ] holds rarer units or linkages, { } end groups; capitals alone tell only the bases. e = 2'-O-(2-methoxyethyl) (MOE); [5mC] = 5-methylcytosine; d = 2'-deoxy (DNA)
# System: PCSK9 mRNA
# Assay type: cell-based, human
# Settings: Hep3B cells, 100 nM, relative to untreated control cells; for % Inhib (PCSK9 mRNA): 0 = no reduction observed
# Description: When cells reached appropriate confluency, they were treated with oligonucleotide using LIPOFECTIN® as described. […] Cells were treated and data were obtained in duplicate or triplicate. […] Cells were harvested 16-24 hours after oligonucleotide treatment.
# Short antisense compounds targeted to a PCSK9 nucleic acid were tested for their effects on PCSK9 mRNA in vitro. The Isis No, gapmer motif and SEQ ID NO of each short antisense compound are shown again in Table 75. Cultured Hep3B cells were treated with 100 nM of short antisense compound. 5-10-5 MOE gapmers targeted to a PCSK9 nucleic acid were used as positive controls. After the treatment period, RNA was isolated from the cells and PCSK9 mRNA levels were measured by quantitative real-time PCR, as described herein. PCSK9 mRNA levels were adjusted according to total RNA content as measured by RIBOGREEN®. Results are presented in Table 75 as percent inhibition of PCSK9 (% Inhib), relative to untreated control cells.
substance,measurement,value
400297 (antisense eA*eT*dG*dG*dG*dG*d[5mC]*dA*dA*d[5mC]*dT*dT*e[5mC]*eA) [compound 400297],% Inhib (PCSK9 mRNA),0%
400298 (antisense e[5mC]*eA*dT*dG*dG*dG*dG*d[5mC]*dA*dA*d[5mC]*dT*eT*e[5mC]) [compound 400298],% Inhib (PCSK9 mRNA),0%
400299 (antisense eA*e[5mC]*dA*dT*dG*dG*dG*dG*d[5mC]*dA*dA*d[5mC]*eT*eT) [compound 400299],% Inhib (PCSK9 mRNA),0%
400300 (antisense eG*eG*dG*dA*dT*dG*d[5mC]*dT*d[5mC]*dT*dG*dG*eG*e[5mC]) [compound 400300],% Inhib (PCSK9 mRNA),9%
400301 (antisense e[5mC]*eG*d[5mC]*dT*d[5mC]*d[5mC]*dA*dG*dG*dT*dT*d[5mC]*e[5mC]*eA) [compound 400301],% Inhibition Range (PCSK9 mRNA),20-30%
same,% Inhib (PCSK9 mRNA),27%
400302 (antisense eG*eA*dT*dA*d[5mC]*dA*d[5mC]*d[5mC]*dT*d[5mC]*d[5mC]*dA*e[5mC]*e[5mC]) [compound 400302],% Inhib (PCSK9 mRNA),0%
400303 (antisense eA*eG*dA*dT*dA*d[5mC]*dA*d[5mC]*d[5mC]*dT*d[5mC]*d[5mC]*eA*e[5mC]) [compound 400303],% Inhib (PCSK9 mRNA),0%
400304 (antisense eG*eA*dG*dA*dT*dA*d[5mC]*dA*d[5mC]*d[5mC]*dT*d[5mC]*e[5mC]*eA) [compound 400304],% Inhibition Range (PCSK9 mRNA),10-20%
same,% Inhib (PCSK9 mRNA),11%
400305 (antisense eG*e[5mC]*d[5mC]*dT*dG*dT*d[5mC]*dT*dG*dT*dG*dG*eA*eA) [compound 400305],% Inhibition Range (PCSK9 mRNA),30-40%
same,% Inhib (PCSK9 mRNA),38%
400306 (antisense e[5mC]*eT*dG*dT*d[5mC]*dA*d[5mC]*dA*d[5mC]*dT*dT*dG*e[5mC]*eT) [compound 400306],% Inhibition Range (PCSK9 mRNA),40-50%
same,% Inhib (PCSK9 mRNA),40%
400310 (eT*e[5mC]*d[5mC]*d[5mC]*dG*dG*d[5mC]*d[5mC]*dG*d[5mC]*dT*dG*eA*e[5mC]; antisense) [compound 400310],% Inhib (PCSK9 mRNA),8%
400311 (eA*eT*d[5mC]*d[5mC]*d[5mC]*dG*dG*d[5mC]*d[5mC]*dG*d[5mC]*dT*eG*eA; antisense) [compound 400311],% Inhibition Range (PCSK9 mRNA),10-20%
same,% Inhib (PCSK9 mRNA),18%
400312 (e[5mC]*eA*dT*d[5mC]*d[5mC]*d[5mC]*dG*dG*d[5mC]*d[5mC]*dG*d[5mC]*eT*eG; antisense) [compound 400312],% Inhibition Range (PCSK9 mRNA),20-30%
same,% Inhib (PCSK9 mRNA),28%
400313 (eG*e[5mC]*dA*dT*d[5mC]*d[5mC]*d[5mC]*dG*dG*d[5mC]*d[5mC]*dG*e[5mC]*eT; antisense) [compound 400313],% Inhibition Range (PCSK9 mRNA),10-20%
same,% Inhib (PCSK9 mRNA),10%
400314 (eG*eT*dG*d[5mC]*d[5mC]*d[5mC]*dT*dT*d[5mC]*d[5mC]*d[5mC]*dT*eT*eG; antisense) [compound 400314],% Inhibition Range (PCSK9 mRNA),20-30%
same,% Inhib (PCSK9 mRNA),26%
400315 (eA*eT*dG*dA*dG*dG*dG*dT*dG*d[5mC]*d[5mC]*dG*e[5mC]*eT; antisense) [compound 400315],% Inhib (PCSK9 mRNA),0%
400316 (eT*eA*dT*dG*dA*dG*dG*dG*dT*dG*d[5mC]*d[5mC]*eG*e[5mC]; antisense) [compound 400316],% Inhib (PCSK9 mRNA),8%
400317 (e[5mC]*eT*dA*dT*dG*dA*dG*dG*dG*dT*dG*d[5mC]*e[5mC]*eG; antisense) [compound 400317],% Inhib (PCSK9 mRNA),7%
400318 (e[5mC]*e[5mC]*dT*dA*dT*dG*dA*dG*dG*dG*dT*dG*e[5mC]*e[5mC]; antisense) [compound 400318],% Inhibition Range (PCSK9 mRNA),20-30%
same,% Inhib (PCSK9 mRNA),26%
400319 (e[5mC]*eG*dA*dA*dT*dA*dA*dA*d[5mC]*dT*d[5mC]*d[5mC]*eA*eG; antisense) [compound 400319],% Inhib (PCSK9 mRNA),0%
